Measured values reported in patent US5444155A, “Molecules with antibody combining sites that induce asymmetry” (The Scripps Research Institute, priority 1991, dated 1995).
Where two headings read alike, the source gives them in different places.

Legend:
[1] = tested on: monoclonal antibody (catalytic receptor) produced by hybridoma 37E8, ATCC HB 10868; type: biochemical, mouse
[2] = molecular target: T1, Butyl Cholinesterase EC 3.1.1.8, from horse serum (Sigma) (Equus caballus, UniProt P81908); assay: Hydrolysis of Compound 1 by authentic butyl cholinesterase, assayed by gas chromatography; type: biochemical
T1 construct: purchased Sigma Chemical Co., St. Louis
Method: The production of Compound 2 by a monoclonal antibody composition of this invention was assayed at a concentration of 10 μM monoclonal antibody and 1 mM Compound 1 in pH 8.0 ATE buffer (0.52M ACES, 0.52M Tris, 0.01M ethanolamine) at 37° C. The initial rate of hydrolysis of Compound 1 by the monoclonal antibodies produced by hybridoma 37E8 followed Michaelis-Menten kinetics (Table 1 hereinafter).
The conditions used for this study were as follows. Monoclonal antibodies produced by hybridoma 37E8 (10 μM) were added to a solution of 800 μM Compound 1 and 25 μM Compound C. Under these conditions, the substrate concentration was at saturation for the monoclonal antibody (4.5Km) and at approximately Km for either cholinesterase.
^b EC 3.1.1.8. From horse serum (Sigma Chemical Co., St. Louis),
All assays consisted of determining the amount of Compound 2 by gas chromatography analysis (Hewlett Packard 5890A, carbowax 30 m, 0.53 mm bore, capillary column) with ethyl levulinate as an internal standard.

[3] = molecular target: Acetyl Cholinesterase EC 3.1.1.7, Type VS, electric eel (Sigma) (Electrophorus electricus, UniProt O42275); assay: Hydrolysis of Compound 1 by authentic acetyl cholinesterase, assayed by gas chromatography
Sequence of Acetyl Cholinesterase EC 3.1.1.7, Type VS, electric eel (Sigma) (O42275 24-633): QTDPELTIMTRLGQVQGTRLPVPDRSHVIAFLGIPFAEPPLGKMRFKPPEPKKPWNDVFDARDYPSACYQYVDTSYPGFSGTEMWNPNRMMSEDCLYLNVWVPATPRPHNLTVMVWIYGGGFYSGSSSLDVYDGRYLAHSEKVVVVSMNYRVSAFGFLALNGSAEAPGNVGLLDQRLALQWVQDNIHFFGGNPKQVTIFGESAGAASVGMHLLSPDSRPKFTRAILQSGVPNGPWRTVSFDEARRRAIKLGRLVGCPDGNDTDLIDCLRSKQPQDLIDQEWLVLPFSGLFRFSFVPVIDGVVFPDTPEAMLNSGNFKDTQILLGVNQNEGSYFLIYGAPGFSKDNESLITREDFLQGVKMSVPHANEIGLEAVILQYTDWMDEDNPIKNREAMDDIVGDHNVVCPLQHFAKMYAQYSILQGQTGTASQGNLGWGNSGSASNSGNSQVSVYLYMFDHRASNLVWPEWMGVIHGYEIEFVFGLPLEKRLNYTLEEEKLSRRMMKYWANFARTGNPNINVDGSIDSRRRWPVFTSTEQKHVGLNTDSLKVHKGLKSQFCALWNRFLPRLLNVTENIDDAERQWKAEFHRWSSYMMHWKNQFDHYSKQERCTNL

T1 sequence (P81908 whole entry): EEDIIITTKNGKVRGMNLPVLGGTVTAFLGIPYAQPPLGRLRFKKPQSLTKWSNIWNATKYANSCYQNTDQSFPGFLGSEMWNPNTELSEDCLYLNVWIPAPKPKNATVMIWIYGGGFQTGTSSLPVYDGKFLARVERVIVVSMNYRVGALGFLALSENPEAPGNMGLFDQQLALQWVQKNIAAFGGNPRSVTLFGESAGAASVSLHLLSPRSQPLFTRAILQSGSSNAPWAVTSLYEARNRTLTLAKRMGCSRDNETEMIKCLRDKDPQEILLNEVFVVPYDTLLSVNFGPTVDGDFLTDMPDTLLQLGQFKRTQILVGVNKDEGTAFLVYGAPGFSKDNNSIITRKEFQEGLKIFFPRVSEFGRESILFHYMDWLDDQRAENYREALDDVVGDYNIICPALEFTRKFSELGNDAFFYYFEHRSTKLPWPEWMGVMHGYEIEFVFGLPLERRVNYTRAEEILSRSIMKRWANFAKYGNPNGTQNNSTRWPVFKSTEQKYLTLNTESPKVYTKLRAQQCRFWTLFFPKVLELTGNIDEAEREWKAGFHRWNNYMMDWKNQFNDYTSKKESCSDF

Row | Compound | kcat (hydrolysis of Compound 1) ([1]; pH 8) | Km ([1]; pH 8, read-out: Km (hydrolysis of Compound 1)) [µM] | inhibition of the hydrolytic reaction by free Compound C [1] | Ki ([1]; read-out: Ki (free Compound C)) [µM] | Ki ([1]; read-out: ki (inhibition of hydrolysis of Compound 1 by free Compound C)) [µM] | inhibition by free Compound C ([2]; 800 μM Compound 1, 25 μM Compound C) | Ki ([2]; 0.0117 units enzyme used, read-out: ki (hydrolysis of Compound 1, inhibitor Compound C)) [µM] | Ki [3] [µM] | inhibition by free Compound C [3]
1 | CC(=O)O[C@@H]1C=C[C@H](OC(C)=O)C1 [Compound 1, cis-3,5-diactoxycyclopent-1-ene] | 0.007 | 177 | – | – | – | – | – | – | –
2 | CC(=O)O[C@H]1C=C[C@@H](OP(=O)(O)CCCCCC(=O)O)C1 [Compound C] | – | – | extensive inhibition | 7 | 7 | no inhibition | 800 | 630 | no inhibition
